# In paper PMC12035931, “Biologically active withanolides from Physalis peruviana” (Pharmaceutical Biology, 2025):
# Where a name gives a salt, the structure may show the parent alone. Read-outs that look alike come from different tables or passages of the source.
# Key:
# RAW 264.7 cells = experiment: SRB cytotoxicity / survival of RAW 264.7 cells in the nitrite assay; format: cell-based, mouse; conditions: for Nitrite assay % surv.: % survival at a concentration of 50 μM, RAW 264.7; for cytotoxicity in NO assay: RAW 264.7 cells
# Description: (§1) Test compounds were dissolved in phenol red-free DMEM (Cat. No. 12-917 F, Lonza, Massachusetts, USA) and added to the cells as a pretreatment for 30 min. The cells were then exposed to LPS (1 µg/mL, Cat. No. L-2762, Sigma-Aldrich, Saint Louis, MO, USA) for 20 h. Nitric oxide levels were quantified using the Griess reagent, which consists of a 1:1 (v/v) mixture of 1% sulfanilamide (Cat.No. A13001, Alfa Aesar, Massachusetts, USA) in H3PO4 and N-(1-naphthyl)ethylenediamine dihydrochloride (Cat. No. 102397, MP Biomedicals, USA). A standard curve was generated using sodium nitrite (Cat. No. 44227, Alfa Aesar, Massachusetts, USA), and IC50 values were calculated using Table Curve 2D software (Version 4.07, AISN Software Inc., Richmond, VA, USA). Also, a sulforhodamine B (SRB, Cat. No. S9012, Sigma-Aldrich, Saint Louis, MO, USA) assay was performed to assess the cytotoxic effects of the test compounds on RAW 264.7 cells.
# [1] = test system: human embryonic kidney 293 cells (HEK293); experiment: Cell survival in the NF-κB assay; format: cell-based
# [2] = test system: NO production in LPS-activated murine macrophage RAW 264.7 cells; experiment: cells; format: cell-based, mouse; conditions: for inhibition at 50 µM / IC50: Mus musculus; for inhibition at 50 µM: read-out: Nitrite assay % inhib.; for NO inhibitory activity: compared with positive control L-NMMA / within the series
# Description: The inhibition of nitric oxide (NO) production in lipopolysaccharide (LPS)-stimulated murine macrophage RAW 264.7 cells was evaluated following previously described methods (Min et al. [2009]). RAW 264.7 cell line was purchased from ATCC (Cat. No. TIB-71, Manassas, VA, USA) and cultured in Dulbecco’s modified Eagle’s medium (DMEM, Cat. No. 12800-082, Invitrogen, Massachusetts, USA) supplemented with 10% heat-inactivated fetal bovine serum (FBS, Cat. No. 26140, Gibco BRL Co, Grand Island, NY, USA), 100× penicillin G and streptomycin (Cat. No.11074440001, Sigma-Aldrich, Saint Louis, MO, USA) and 2 mM L-glutamine (Cat. No. 25030, Gibco BRL Co, Grand Island, NY, USA). Cells were seeded at 10 × 10^5 cells per well in 96-well plates and incubated for 24 h at 37 °C in a humidified atmosphere containing 5% CO2.
# as §1
# [3] = test system: TNF-α-induced NF-κB activity; experiment: Inhibition of TNF-α-activated NF-κB, luciferase reporter assay in HEK293 cells; format: cell-based, human; conditions: for inhibition at 50 µM: read-out: NF-κB assay % inhib.
# From the text: To study the inhibition of tumor necrosis factor-alpha (TNF-α)-induced activation of nuclear factor-kappa B (NF-κB), human embryonic kidney 293 cells (HEK293) stably transfected with an NF-κB-responsive luciferase reporter construct (Cat. No. RC0014, Panomics, Fremont, CA, USA) were utilized, following previously described protocols (Kondratyuk et al. [2012]). This cell line incorporates a chromosomally integrated luciferase reporter, which produces luciferase enzyme upon NF-κB activation. The enzyme reacts with its substrate to produce a luminescent signal, detectable via luminometry. Cells were seeded at a density of 2 × 10^4 cells/mL in 96-well plates and cultured in Dulbecco’s Modified Eagle Medium (DMEM, Cat. No. D6429, Sigma-Aldrich, Saint Louis, MO, USA) supplemented with 10% fetal bovine serum (FBS, Cat. No. A5670701, Gibco™, Thermo Fisher Scientific, Waltham, MA, USA). The medium also contained 100 µg/mL streptomycin sulfate and 100 IU/mL penicillin G (Cat. No.15140 Gibco BRL, Grand Island, NY, USA). The cells were then treated with varying concentrations of the test sample and stimulated with recombinant human TNF-α (2 ng/mL, Cat. No. HZ-1014, Proteintech Group, Inc. Rosemont, IL, USA).
# Following a 6-hour incubation, the cells were rinsed with phosphate buffer saline (PBS), lysed with 40 μL of 1X Reporter Lysis Buffer (Cat. No. E2661, Promega, Madison, WI, USA), and subjected to a freeze-thaw cycle (−80 °C/37 °C). Luminescence, generated by the luciferase reaction, was quantified using the Luc assay system (Cat. No. N1610, Promega, Madison, WI, USA) and a LUMIstar Galaxy luminometer (BMG, Offenburg, Germany).
# [4] = SRB cytotoxicity / survival of RAW 264.7 cells in the nitrite assay; format: cell-based, mouse; conditions: mouse; cytotoxicity in RAW 264.7 cells, NO assay; read-out: cytotoxic IC50
# Description: as §1
# [5] = test system: NO-production in LPS-stimulated RAW 264.7 cells; set-up: method as in Choudhari et al. [2013]; Park et al. [2019]; conditions: ref Choudhari et al. [2013], Park et al. [2019], read-out: NO-production IC50 (literature); cited from earlier work
# [6] = RAW264.7, read-out: Nitrite assay IC50
# [7] = Homo sapiens, HEK293, % inhibition at a concentration of 50 μM, TNF-α 2 ng/mL, 6 h
# [8] = Homo sapiens, TNF-α-induced NF-κB luciferase, HEK293, read-out: NF-κB assay IC50
# [9] = RAW264.7, LPS-activated RAW 264.7 cells, read-out: Nitrite assay IC50
# [10] = acetate versus parent, from IC50
# [11] = % survival at a concentration of 50 μM
# [12] = RAW264.7, % inhibition of NO at 50 μM, LPS 1 µg/mL, 20 h
# [13] = Homo sapiens, HEK293, read-out: NF-κB assay IC50
SMILES,Nitrite assay % surv. (RAW 264.7 cells) [%],cytotoxicity in NO assay (RAW 264.7 cells),"NF-κB assay % surv. ([1]; human, 6 h, 50 µM) [%]","inhibition at 50 µM ([2]; RAW264.7, 20 h) [%]","IC50 [2, 6] [µM]","inhibition at 50 µM [3, 7] [%]","IC50 [3, 8] [µM]",also measured
"CC1=C(C)C(=O)OC(C(C)(O)C2(O)CCC3(O)C4CC(O)C5(O)C(O)C(O)CC(=O)C5(C)C4CCC32C)C1 [Compound 1, (20S,22R)-3α,4β,5α,6β,14α,17β,20β-heptahydroxy-1-oxowitha-24-ene-26,22-olide]",100 ± 1.1,without significant cytotoxicity,100 ± 24.5,82.4 ± 1.1,13.3 ± 0.2,93.4 ± 1.2,0.01 ± 0.01,
"CC1=C(CO)CC(C(C)(O)C2(O)CCC3(O)C4CC(O)C5(O)CC=CC(=O)C5(C)C4CCC32C)OC1=O (stereo not shown) [Compound 7, phyperunolide B]",100.0 ± 14.1,,81.6 ± 8.4,7.4 ± 3.5,,41 ± 6.9,,
"Cc1ccc(S(=O)(=O)N[C@@H](Cc2ccccc2)C(=O)CCl)cc1 [TPCK, Nα-tosyl-L-phenylalanine chloromethyl ketone, reference compound]",,,,,,,,"IC50 ([3]; TNF-α-induced NF-κB luciferase, HEK293, read-out: NF-κB assay IC50): 7.08 ± 1.72 µM"
"CC(=O)OC1C[C@H](O)CC2=CCC3C4CCC([C@@](C)(O)[C@H](O)C[C@@H]5COC(=O)[C@@]5(C)O)[C@@]4(C)CCC3[C@]21C (stereo partly shown) [Compound 6, perulactone C]",95.3 ± 11.0,without significant cytotoxicity,36.5 ± 1.9,84.2 ± 3.7,11.8 ± 0.3,56.1 ± 3.9,1.1 ± 0.48,
"[H]/N=C(/NC)NCCC[C@H](N)C(=O)O [L-NMMA, L-N^G-Monomethyl arginine citrate, reference compound]",,,,,,,,"IC50 [2, 9]: 23.5 ± 3.4 µM"
CC(=O)OC1C[C@H](OC(C)=O)CC2=CCC3C4CCC([C@@](C)(O)[C@@H](C[C@@H]5COC(=O)[C@@]5(C)O)OC(C)=O)[C@@]4(C)CCC3[C@]21C (stereo partly shown) [Compound 6a],92.0 ± 5.0,,21.8 ± 0.8,20.6 ± 3,,77.4 ± 7.3,10.5 ± 2.55,"NF-κB activity diminished relative to parent compound [3, 10]: about 10 fold"
"CC1=C(C)C(=O)OC(C(C)(O)C2(O)CCC3(O)C4CC(Cl)C5(O)C(O)C=CC(=O)C5(C)C4CCC32C)C1 [Compound 2, (20S,22R)-4β,5β,14α,17β,20α-pentahydroxy-6α-chloro-1-oxowitha-2,24-diene-22,26-olide]",96.1 ± 3.2,without significant cytotoxicity,100.0 ± 14.4,99.4 ± 0.1,3.3 ± 0.3,97.4 ± 1.1,0.06 ± 0.02,
CC(=O)OC1C=CC(=O)C2(C)C3CCC4(C)C(O)(CCC4(O)C(C)(O)C4CC(C)=C(C)C(=O)O4)C3CC(Cl)C12O (stereo not shown) [Compound 2a],93.2 ± 2.3,without significant cytotoxicity,12.3 ± 7.58,99.2 ± 2.6,8.7 ± 0.6,92.2 ± 0.6,1.1 ± 0.42,
"CC1=C(C)C(=O)OC(C(C)(O)C2(O)CC(O)C3(O)C4CC(O)C5(O)CC=CC(=O)C5(C)C4CCC32C)C1 (stereo not shown) [Compound 8, coagulin H]",100.0 ± 6.3,,82.2 ± 3.9,67.1 ± 2.2,16.7 ± 0.4,70.2 ± 8.1,8.9 ± 1.1,
CC(=O)O[C@H]1C=CC(=O)[C@]2(C)C3CC[C@]4(C)[C@](O)([C@@](C)(O)C5CC(C)=C(C)C(=O)O5)CC[C@@]4(O)C3C[C@H]3O[C@]132 (stereo partly shown) [Compound 3a],38.9 ± 2.3,,2.2 ± 2.6,99.2 ± 0.4,0.24 ± 0.01,99.9 ± 0.9,0.47 ± 0.61,IC50 at 20 h [4]: 2.1 µM; NO inhibitory activity [2]: most active
"CC(=O)O[C@@H]1CC2C(CC[C@]3(C)[C@](O)([C@@](C)(O)C4CC(C)=C(C)C(=O)O4)CC[C@@]23O)[C@@]2(C)C(=O)C=CC=C12 (stereo partly shown) [Compound 5a, withaperuvin C acetate]",98.8 ± 1.4,without significant cytotoxicity,47.0 ± 6.0,99 ± 0.3,1.8 ± 0.1,78.3 ± 3,2.4 ± 1.7,
"CO[C@H]1CC(=O)[C@]2(C)C3CC[C@@]4(C)C(=C3C[C@H]3O[C@]32[C@H]1O)CC[C@@]4(O)[C@@](C)(O)C1CC(C)=C(C)C(=O)O1 (stereo partly shown) [Compound 4, physalactone]",90.7 ± 5.0,without significant cytotoxicity,,,,,,"NF-κB assay % surv. [1, 11]: 100.0 ± 16.6%; inhibition at 50 µM [2, 12]: 97.9 ± 2%; IC50 [2, 9]: 1.8 ± 0.17 µM; inhibition at 50 µM ([3]; Homo sapiens, HEK293, 6 h): 66.7 ± 3.9%; IC50 [3, 13]: 11 ± 2.3 µM"
"CC1=C(C)C(=O)OC([C@](C)(O)[C@]2(O)CC[C@@]3(O)C4C[C@@H](O)C5=CC=CC(=O)[C@]5(C)C4CC[C@]23C)C1 (stereo partly shown) [Compound 5, withaperuvin C]",79.3 ± 1.2,without significant cytotoxicity,100.0 ± 8.0,99.2 ± 0.7,2.4 ± 0.2,85 ± 4.4,5.6 ± 2.1,
CO[C@H]1CC(=O)[C@]2(C)C3CC[C@@]4(C)C(=C3C[C@H]3O[C@]32[C@H]1OC(C)=O)CC[C@@]4(O)[C@@](C)(O)C1CC(C)=C(C)C(=O)O1 (stereo partly shown) [Compound 4a],40.3 ± 4.1,,,,,,,"NF-κB assay % surv. [1, 11]: 77.7 ± 5.3%; inhibition at 50 µM [2, 12]: 99.8 ± 0.3%; IC50 [2, 9]: 0.24 ± 0.01 µM; NO inhibitory activity [2]: most active; inhibition at 50 µM ([3]; Homo sapiens, HEK293, 6 h): 88 ± 1.3%; IC50 [3, 13]: 0.33 ± 0.1 µM; NF-κB activity enhanced relative to parent compound [3, 10]: over 30 fold"
"CC1=C(C)C(=O)OC([C@](C)(O)[C@]2(O)CC[C@@]3(O)C4C[C@H]5O[C@]56[C@@H](O)C=CC(=O)[C@]6(C)C4CC[C@]23C)C1 (stereo partly drawn) [Compound 3, 4β-hydroxywithanolide E]",50.1 ± 2.3,,88.6 ± 10.1,99.2 ± 0.4,0.32 ± 0.02,99.5 ± 0.1,0.04 ± 0.03,IC50 at 20 h [4]: 14 µM; IC50 [5]: 0.9 µM
